In patent US10253039B2, “Inhibitors of bacterial DNA gyrase with efficacy against gram-negative bacteria” (priority 2014, dated 2019):
Values after ≈ are worked out from the molar mass of the structure shown. Where two headings read alike, the source gives them in different places.

What was measured:
Assay type in all cases: cell-based
Edwardsiella tarda = test: MIC, microdilution in 96-well plates
Protocol: (§1) A microdilution method in 96-well plates was used and the MIC protocol established by the Clinical Laboratory Standards Institute was followed. From a growing subculture, a 1:10000 inoculum of each strain in Luria-Bertani media was prepared and aliquoted 100 μL in 4 columns of wells, except for the top row wells, which contained 200 μL of inoculum. A solution of gyramide C2 was aliquoted into 3 of the wells containing 200 μL and DMSO was added to the 4th well. The liquid in each of wells was mixed with a multi-channel pipet and 100 μL was transferred to the next well and mixed. The 2-fold dilution was continued down the 96-well plate until 100 μL was left, which was discarded. The plates were incubated at 37° C. with shaking for 16-18 hours. The MIC was determined as the lowest concentration that inhibited growth and had no turbidity by visual inspection.
(§2) Minimum inhibitory concentrations of various gyramide compounds against 20 strains of bacteria were determined using the procedure described above.

E. coli BW25113 = test: MIC, microdilution in 96-well plates; conditions: Escherichia coli, read-out: MIC
Protocol: as §1, §2

Streptococcus agalactiae = test: MIC, 20-strain panel
Protocol: as §1, §2

[1] = tested on: Salmonella enterica subsp. enterica typhimurium; test: MIC, 20-strain panel
Protocol: as §1, §2

Shigella flexneri = test: MIC, 20-strain panel
Protocol: as §1, §2

[2] = tested on: Staphylococcus saprophyticus subsp. saprophyticus; test: MIC, 20-strain panel
Protocol: as §1, §2

[3] = tested on: Klebsiella pneumoniae subsp. pneumoniae; test: MIC, 20-strain panel
Protocol: as §1, §2

E. coli JW5503 (deltolC) = test: MIC, 20-strain panel; conditions: Escherichia coli
Protocol: as §1, §2

E. coli MG1655 = test: MIC, 20-strain panel; conditions: Escherichia coli, read-out: MIC
Protocol: as §1, §2

Streptococcus pyogenes = test: MIC, 20-strain panel
Protocol: as §1, §2

[4] = tested on: Staphylococcus epidermidis; test: MIC, 20-strain panel
Protocol: as §1, §2

[5] = tested on: Staphylococcus aureus subsp. aureus; test: MIC, 20-strain panel; conditions: read-out: MIC
Protocol: as §1, §2

[6] = F: Salmonella enterica subsp. enterica Typhimurium
[7] = E: Klebsiella pneumoniae subsp. pneumoniae
[8] = H: Staphylococcus aureus subsp. aureus
[9] = Salmonella enterica subsp. enterica Typhimurium
[10] = Klebsiella pneumoniae subsp. pneumoniae
[11] = Staphylococcus aureus subsp. aureus

SMILES	MIC (Edwardsiella tarda; D: Edwardsiella tarda) [µg/mL]	MIC (E. coli BW25113; BW25113, B: E. coli BW25113) [µg/mL]	MIC (Streptococcus agalactiae) [µg/mL]	MIC [1, 6] [µg/mL]	MIC (Shigella flexneri; G: Shigella flexneri) [µg/mL]	MIC [2] [µg/mL]	MIC [3, 7] [µg/mL]	MIC (E. coli JW5503 (deltolC); C: E. coli JW5503 (deltolC)) [µg/mL]	MIC (E. coli MG1655; MG1655, A: E. coli MG1655) [µg/mL]	MIC (Streptococcus pyogenes) [µg/mL]	MIC [4] [µg/mL]	MIC [5, 8] [µg/mL]	MIC (Edwardsiella tarda) [µg/mL]	MIC (E. coli BW25113; BW25113, E. coli BW25113) [µg/mL]	MIC [1, 9] [µg/mL]	MIC (Shigella flexneri) [µg/mL]	MIC [3, 10] [µg/mL]	MIC (E. coli JW5503 (deltolC); E. coli JW5503 (deltolC)) [µg/mL]	MIC (E. coli MG1655; MG1655, E. coli MG1655) [µg/mL]	MIC [5, 11] [µg/mL]
Cc1ccc(S(C)(=O)=O)cc1S(=O)(=O)N[C@@H]1CCN(Cc2ccc(OC(C)C)cc2)C1 [Compound 72]	> 8	> 8	> 8	> 8	> 8	> 8	> 8	> 8	> 8	> 8	> 8	> 8								
O=S(=O)(N[C@@H]1CCN(Cc2ccc(OC3CC3)cc2)C1)c1cccc2cccnc12 [Compound 96]	> 8	> 8	> 8	~8 (≈ 18.9 µM)	> 8	> 8	> 8	1 (≈ 2.36 µM)	> 8	> 8	> 8	> 8								
O=S(=O)(N[C@@H]1CCN(Cc2cn(-c3ccccc3)nn2)C1)c1cccc(OC(F)(F)F)c1 [Compound 129]			> 8			> 8				> 8	> 8		> 8	> 8	> 8	> 8	> 8	> 8	> 8	> 8
O=S(=O)(N[C@@H]1CCN(Cc2ccc(OC(F)(F)F)cc2)C1)c1cccc(C(F)(F)F)c1 [Compound 6]	> 8	> 8	> 8	> 8	> 8	> 8	> 8	4 (≈ 8.54 µM)	> 8	> 8	> 8	> 8								
N#Cc1cccc(S(=O)(=O)N[C@@H]2CCN(Cc3ccc(-c4cccc(Cl)c4)cc3)C2)c1 [Compound 24]	> 8	> 8	> 8	> 8	> 8	> 8	> 8	4 (≈ 8.85 µM)	> 8	> 8	> 8	> 8								
O=S(=O)(N[C@@H]1CCN(Cc2ccc(-c3ccc(Cl)cc3)cc2)C1)c1cccc(OC(F)(F)F)c1 [Compound 103]	> 8	> 8	> 8	> 8	> 8	> 8	> 8	~8 (≈ 15.7 µM)	> 8	~8 (≈ 15.7 µM)	8 (≈ 15.7 µM)	8 (≈ 15.7 µM)								
Cn1ccc(-c2ccc(CN3CC[C@@H](NS(=O)(=O)c4cccc(C(F)(F)F)c4)C3)cc2)n1 [Compound 171]			> 8			> 8				> 8	> 8		> 8	> 8	> 8	> 8	> 8	1 (≈ 2.15 µM)	> 8	> 8
O=S(=O)(N[C@@H]1CCN(Cc2ccc(OC(F)F)cc2)C1)c1cccc(OC(F)(F)F)c1 [Compound 106]	> 8	> 8	> 8	> 8	> 8	> 8	> 8	> 8	> 8	> 8	> 8	> 8								
CC(C)Oc1ccc(CN2CC[C@@H](NS(=O)(=O)c3ccc(Cl)cn3)C2)cc1 [Compound 149]			> 8			> 8				> 8	> 8		> 8	> 8	> 8	> 8	> 8	> 8	> 8	> 8
